Source: publication PMC3844542 (Anesthesia and analgesia, 2013)

What was measured:
[1] = target: leukocyte function–associated antigen-1 (LFA-1) (Homo sapiens, UniProt P20701); assay: ELISA-type ICAM-1–LFA-1 binding assay with purified LFA-1; format: biochemical
[2] = target: T1, LFA-1 αL I domain (wild-type, low-affinity conformer) (Homo sapiens, UniProt P20701); assay: 1-aminoanthracene fluorescence displacement assay; format: binding
T1 sequence (P20701 153-332): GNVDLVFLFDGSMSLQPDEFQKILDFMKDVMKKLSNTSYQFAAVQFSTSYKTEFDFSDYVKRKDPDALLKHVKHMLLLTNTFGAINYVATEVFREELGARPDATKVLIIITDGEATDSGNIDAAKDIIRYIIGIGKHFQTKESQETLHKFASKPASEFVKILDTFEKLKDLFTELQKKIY

leukocyte function–associated antigen-1 (LFA-1), sequence (P20701 26-1090 limits assumed): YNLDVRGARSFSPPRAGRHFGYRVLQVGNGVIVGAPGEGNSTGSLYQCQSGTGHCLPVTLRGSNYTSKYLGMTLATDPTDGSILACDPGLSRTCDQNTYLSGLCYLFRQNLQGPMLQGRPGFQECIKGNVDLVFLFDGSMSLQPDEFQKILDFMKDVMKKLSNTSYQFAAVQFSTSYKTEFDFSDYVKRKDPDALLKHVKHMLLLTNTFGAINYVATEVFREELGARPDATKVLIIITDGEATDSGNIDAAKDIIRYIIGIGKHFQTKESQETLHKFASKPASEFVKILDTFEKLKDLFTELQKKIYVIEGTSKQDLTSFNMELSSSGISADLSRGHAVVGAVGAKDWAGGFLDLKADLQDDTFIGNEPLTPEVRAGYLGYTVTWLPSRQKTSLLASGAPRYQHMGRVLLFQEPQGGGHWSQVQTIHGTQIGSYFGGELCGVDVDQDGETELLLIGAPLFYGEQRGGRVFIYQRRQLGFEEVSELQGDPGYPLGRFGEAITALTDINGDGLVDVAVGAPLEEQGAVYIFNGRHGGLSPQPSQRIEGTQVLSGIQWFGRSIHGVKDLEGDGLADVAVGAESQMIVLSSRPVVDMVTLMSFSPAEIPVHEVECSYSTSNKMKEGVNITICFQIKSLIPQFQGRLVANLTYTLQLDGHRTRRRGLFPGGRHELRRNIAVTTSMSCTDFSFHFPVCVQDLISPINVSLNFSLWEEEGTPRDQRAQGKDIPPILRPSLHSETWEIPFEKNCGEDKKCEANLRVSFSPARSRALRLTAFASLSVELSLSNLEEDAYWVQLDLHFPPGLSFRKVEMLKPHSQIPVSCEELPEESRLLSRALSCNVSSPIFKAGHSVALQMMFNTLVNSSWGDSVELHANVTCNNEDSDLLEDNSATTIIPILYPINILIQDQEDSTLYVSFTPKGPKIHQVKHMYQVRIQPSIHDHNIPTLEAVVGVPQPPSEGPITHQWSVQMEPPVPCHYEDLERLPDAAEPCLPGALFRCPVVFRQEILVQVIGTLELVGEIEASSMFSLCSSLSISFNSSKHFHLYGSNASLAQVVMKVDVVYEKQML
leukocyte function–associated antigen-1 (LFA-1), sequence (P05107 23-769 partner): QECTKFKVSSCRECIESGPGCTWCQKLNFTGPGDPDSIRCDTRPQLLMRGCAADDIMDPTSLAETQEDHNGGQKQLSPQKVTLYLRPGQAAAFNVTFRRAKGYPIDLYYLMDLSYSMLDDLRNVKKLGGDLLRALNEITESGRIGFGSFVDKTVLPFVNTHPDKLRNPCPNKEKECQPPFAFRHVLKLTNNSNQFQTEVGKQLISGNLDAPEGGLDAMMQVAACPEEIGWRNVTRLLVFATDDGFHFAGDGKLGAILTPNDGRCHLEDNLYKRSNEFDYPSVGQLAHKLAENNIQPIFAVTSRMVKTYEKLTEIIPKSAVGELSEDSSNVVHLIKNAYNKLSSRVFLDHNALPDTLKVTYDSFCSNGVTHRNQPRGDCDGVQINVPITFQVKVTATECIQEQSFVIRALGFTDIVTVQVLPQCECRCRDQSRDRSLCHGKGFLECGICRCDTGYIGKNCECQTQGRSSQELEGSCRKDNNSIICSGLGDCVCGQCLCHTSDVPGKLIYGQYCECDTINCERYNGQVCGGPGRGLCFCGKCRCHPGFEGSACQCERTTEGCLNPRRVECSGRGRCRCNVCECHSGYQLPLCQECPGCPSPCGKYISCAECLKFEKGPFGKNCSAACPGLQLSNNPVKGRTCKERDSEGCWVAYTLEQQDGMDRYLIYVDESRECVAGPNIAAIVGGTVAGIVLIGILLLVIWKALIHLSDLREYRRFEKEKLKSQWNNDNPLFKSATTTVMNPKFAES

Row | SMILES | ELISA-type ICAM-1-LFA-1 binding assay with purified LFA-1 [1] | IC50 [2] [µM]
1 | CC(C)(C)c1cccc(C(C)(C)C)c1O [DTBP, 2,6-di-tert-butylphenol] | Both propofol and DTBP inhibited ICAM-1–LFA-1 binding. | 
2 | CC(C)c1cccc(C(C)C)c1O [propofol] |  | 90.3
